Results on eleven compounds are retold here after patent US20240116985A1, “STAPLED PEPTIDES AND METHODS THEREOF” (priority 2020, published 2024).

Assay [1] relates to TCF/LEF luciferase Reporter in DLD1 cells. Kind of assay: TCF reporter assay (DLD1 TCF/LEF luciferase reporter, Bright-Glo). It counts as cell-based. To be noted: read-out: DLD1 4% Abs IC50; DLD1 reporter, 4%, absolute IC50. The procedure, abridged:
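Readouts: Bright-Glo luciferase for reporter signal and CellTiter-Glo for cell viability, with absolute IC50 derived. The reporter clone came from lentiviral TCF/LEF-luciferase transduction of DLD1 cells, seeded 5000 cells/well in RPMI with 4% FBS and exposed overnight to serially diluted compounds.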
(In a reporter assay the amount or activity of a reporter protein is the signal.)

The target in assay [2] is T1, beta-catenin/TCF4 engagement (Homo sapiens, UniProt P35222).
T1 construct: expressed in transfected cells; host or cells: HEK293
T1 sequence (P35222 1-781): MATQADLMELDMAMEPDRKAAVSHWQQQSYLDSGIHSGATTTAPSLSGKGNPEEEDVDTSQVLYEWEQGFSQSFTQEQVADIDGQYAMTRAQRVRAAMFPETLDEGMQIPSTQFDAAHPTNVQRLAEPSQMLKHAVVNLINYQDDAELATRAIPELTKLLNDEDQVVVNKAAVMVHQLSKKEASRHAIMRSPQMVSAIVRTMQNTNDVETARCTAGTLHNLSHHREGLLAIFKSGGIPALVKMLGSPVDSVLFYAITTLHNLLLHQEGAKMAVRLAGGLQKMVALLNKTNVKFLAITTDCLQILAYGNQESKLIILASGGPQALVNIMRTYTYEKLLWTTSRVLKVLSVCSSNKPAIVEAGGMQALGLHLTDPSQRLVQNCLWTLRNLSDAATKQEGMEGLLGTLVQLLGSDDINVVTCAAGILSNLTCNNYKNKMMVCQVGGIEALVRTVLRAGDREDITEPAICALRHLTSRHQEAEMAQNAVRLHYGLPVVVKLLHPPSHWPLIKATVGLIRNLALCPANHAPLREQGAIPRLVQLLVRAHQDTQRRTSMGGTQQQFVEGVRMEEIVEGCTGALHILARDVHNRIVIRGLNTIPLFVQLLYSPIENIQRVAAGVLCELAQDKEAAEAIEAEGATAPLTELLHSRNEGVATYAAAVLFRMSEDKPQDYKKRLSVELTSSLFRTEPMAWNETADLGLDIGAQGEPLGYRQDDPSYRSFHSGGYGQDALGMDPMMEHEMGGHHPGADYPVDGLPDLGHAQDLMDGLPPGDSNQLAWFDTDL
Kind of assay: Nano-BRET target engagement assay (B-cat-Halo & TCF4-Luc in HEK293 cells). The class given is cell-based. To be noted: absolute IC50; read-out: NanoBRET Abs IC50. (In BRET a luciferase serves as donor, and the signal depends on an acceptor being close.)

For assay [3], the target named is T2, full-length beta-Catenin (Uniprot ID P35222) (Homo sapiens, UniProt P35222).
T2 construct: 10 nM full-length beta-Catenin (Uniprot ID P35222)
T2 sequence (P35222 1-781): T1 sequence (P35222 1-781)
Description: Fluorescence polarization IC50 (beta-catenin / 5FAM-TCF4 10-53 competition). The class given is binding. To be noted: fluorescence polarization; read-out: beta-Catenin FP IC50. In general terms: Polarisation of emitted light reports the rotation of a fluorescent probe.

Turning to `CCCC[C@H](NC(=O)[C@H](CC(C)C)NC(=O)[C@H](CCC(N)=O)NC(=O)[C@H](Cc1csc2ccccc12)NC(=O)[C@H](Cc1ccccc1C(F)(F)F)NC(=O)[C@]12CCN(C1)C(=O)OCCCC=CCCCC1(CCCC=CC[C@]3(CCCN3C(C)=O)C(=O)N[C@@H](CC(=O)O)C(=O)N[C@@H](CC(C)(C)C)C(=O)N1)C(=O)N[C@@H](CC(=O)O)C(=O)N[C@@H](Cc1cccc(C(=O)O)c1)C(=O)N[C@@H](C)C(=O)N[C@@H](C)C(=O)N[C@@H](Cc1ccccc1)C(=O)N[C@@H](CC(C)C)C(=O)N2)C(N)=O` (stereo partly drawn) [I-2391, Ac-PL3-Asp-Npg-B5-Asp-3COOHF-Ala-Ala-Phe-Leu-PyrS2-2F3MeF-BztA-Gln-Leu-nLeu-NH2], the IC50 came to 0.7 µM in assay [1], 8.2 µM in assay [2] and 0.11 µM in assay [3].

On to `CC(=O)N1CCC[C@]12CC=CCCCC1(CCCC=CCCCOC(=O)N3CC[C@@](C(=O)N[C@@H](Cc4ccccc4C(F)(F)F)C(=O)N[C@@H](Cc4csc5ccccc45)C(=O)N[C@@H](CCC(N)=O)C(=O)N[C@@H](CC(C)C)C(=O)N[C@@H](CCCNC(=N)N)C(N)=O)(C3)NC(=O)[C@H](CC(C)C)NC(=O)[C@H](Cc3ccccc3)NC(=O)[C@H](C)NC(=O)[C@H](C)NC(=O)[C@H](Cc3cccc(C(=O)O)c3)NC(=O)[C@H](CC(=O)O)NC1=O)NC(=O)[C@H](CC(C)(C)C)NC(=O)[C@H](CC(=O)O)NC2=O` (stereo partly drawn) [I-2393, Ac-PL3-Asp-Npg-B5-Asp-3COOHF-Ala-Ala-Phe-Leu-PyrS2-2F3MeF-BztA-Gln-Leu-Arg-NH2], for which the IC50 in assay [1] was 5.6 µM; in assay [2] it was over 20 µM; in assay [3] it was 0.061 µM.

For `CC(=O)N1CCC[C@]12CC=CCCCC1(CCCC=CCCCOC(=O)N3CC[C@@](C(=O)N[C@@H](Cc4ccccc4C(F)(F)F)C(=O)N[C@@H](Cc4csc5ccccc45)C(=O)N[C@@H](CCC(N)=O)C(=O)N[C@@H](CC(C)C)C(=O)N[C@H](C)C(N)=O)(C3)NC(=O)[C@H](CC(C)C)NC(=O)[C@H](Cc3ccccc3)NC(=O)[C@H](C)NC(=O)[C@H](C)NC(=O)[C@H](Cc3cccc(C(=O)O)c3)NC(=O)[C@H](CC(=O)O)NC1=O)NC(=O)[C@H](CC(C)(C)C)NC(=O)[C@H](CC(=O)O)NC2=O` (stereo partly drawn) [I-2395, Ac-PL3-Asp-Npg-B5-Asp-3COOHF-Ala-Ala-Phe-Leu-PyrS2-2F3MeF-BztA-Gln-Leu-dAla-NH2], the IC50 in assay [1] amounted to 1.2 µM; in assay [2], 5.5 µM; in assay [3] it was 0.028 µM.

For the compound `CC(=O)N1CCC[C@]12CC=CCCCC1(CCCC=CCCCOC(=O)N3CC[C@@](C(=O)N[C@@H](Cc4ccccc4C(F)(F)F)C(=O)N[C@@H](Cc4csc5ccccc45)C(=O)N[C@@H](CCC(N)=O)C(=O)N[C@@H](CC(C)C)C(=O)N[C@H](CCC(N)=O)C(N)=O)(C3)NC(=O)[C@H](CC(C)C)NC(=O)[C@H](Cc3ccccc3)NC(=O)[C@H](C)NC(=O)[C@H](C)NC(=O)[C@H](Cc3cccc(C(=O)O)c3)NC(=O)[C@H](CC(=O)O)NC1=O)NC(=O)[C@H](CC(C)(C)C)NC(=O)[C@H](CC(=O)O)NC2=O` (stereo partly drawn) [I-2398, Ac-PL3-Asp-Npg-B5-Asp-3COOHF-Ala-Ala-Phe-Leu-PyrS2-2F3MeF-BztA-Gln-Leu-dGln-NH2], the IC50 is 1.3 µM in assay [1], 3.6 µM in assay [2] and 0.028 µM in assay [3].

As to `CC(=O)N1CCC[C@]12CC=CCCCC1(CCCC=CCCCOC(=O)N3CC[C@@](C(=O)N[C@@H](Cc4ccccc4C(F)(F)F)C(=O)N[C@@H](Cc4csc5ccccc45)C(=O)N[C@@H](CCC(N)=O)C(=O)N[C@@H](C)C(=O)N[C@@H](C)C(N)=O)(C3)NC(=O)[C@H](CC(C)C)NC(=O)[C@H](Cc3ccccc3)NC(=O)[C@H](C)NC(=O)[C@H](C)NC(=O)[C@H](Cc3cccc(C(=O)O)c3)NC(=O)[C@H](CC(=O)O)NC1=O)NC(=O)[C@H](CC(C)(C)C)NC(=O)[C@H](CC(=O)O)NC2=O` (stereo partly drawn) [I-2399, Ac-PL3-Asp-Npg-B5-Asp-3COOHF-Ala-Ala-Phe-Leu-PyrS2-2F3MeF-BztA-Gln-Ala-Ala-NH2], the IC50 in assay [1] is 2.2 µM; in assay [2] it was 2.8 µM; in assay [3], 0.017 µM.

`CC(=O)N1CCC[C@]12CC=CCCCC1(CCCC=CCCCOC(=O)N3CC[C@@](C(=O)N[C@@H](Cc4ccccc4C(F)(F)F)C(=O)N[C@@H](Cc4csc5ccccc45)C(=O)N[C@@H](CCC(N)=O)C(=O)N[C@@H](Cc4ccccc4)C(=O)N[C@@H](C)C(N)=O)(C3)NC(=O)[C@H](CC(C)C)NC(=O)[C@H](Cc3ccccc3)NC(=O)[C@H](C)NC(=O)[C@H](C)NC(=O)[C@H](Cc3cccc(C(=O)O)c3)NC(=O)[C@H](CC(=O)O)NC1=O)NC(=O)[C@H](CC(C)(C)C)NC(=O)[C@H](CC(=O)O)NC2=O` (stereo partly drawn) [I-2400, Ac-PL3-Asp-Npg-B5-Asp-3COOHF-Ala-Ala-Phe-Leu-PyrS2-2F3MeF-BztA-Gln-Phe-Ala-NH2]: the IC50 in assay [1] stood at 0.8 µM; in assay [2], 2.5 µM; in assay [3], 0.142 µM.

Take `CC(=O)N1CCC[C@]12CC=CCCCC1(CCCC=CCCCOC(=O)N3CC[C@@](C(=O)N[C@@H](Cc4ccccc4C(F)(F)F)C(=O)N[C@@H](Cc4csc5ccccc45)C(=O)N[C@@H](CCC(N)=O)C(=O)N[C@H](C(=O)N[C@@H](C)C(N)=O)C(C)C)(C3)NC(=O)[C@H](CC(C)C)NC(=O)[C@H](Cc3ccccc3)NC(=O)[C@H](C)NC(=O)[C@H](C)NC(=O)[C@H](Cc3cccc(C(=O)O)c3)NC(=O)[C@H](CC(=O)O)NC1=O)NC(=O)[C@H](CC(C)(C)C)NC(=O)[C@H](CC(=O)O)NC2=O` (stereo partly drawn) [I-2401, Ac-PL3-Asp-Npg-B5-Asp-3COOHF-Ala-Ala-Phe-Leu-PyrS2-2F3MeF-BztA-Gln-Val-Ala-NH2]: the IC50 in assay [1] was determined as 0.8 µM; in assay [2], 4.4 µM; in assay [3], 0.037 µM.

Consider `CC(=O)N1CCC[C@]12CC=CCCCC1(CCCC=CCCCOC(=O)N3CC[C@@](C(=O)N[C@@H](Cc4ccsc4)C(=O)N[C@@H](Cc4csc5ccccc45)C(=O)N[C@H](C(N)=O)[C@@H](C)O)(C3)NC(=O)[C@H](CC(N)=O)NC(=O)[C@H](Cc3ccccc3)NC(=O)[C@H](C)NC(=O)C(C)(C)NC(=O)[C@H]([C@@H](C)O)NC(=O)[C@H](CC(N)=O)NC1=O)NC(=O)[C@H](CC(C)(C)C)NC(=O)[C@H](CC(=O)O)NC2=O` (stereo partly drawn) [I-2416, Ac-PL3-Asp-Npg-B5-Asn-Thr-Aib-Ala-Phe-Asn-PyrS2-3Thi-BztA-Thr-NH2], for which the results for the IC50 in assay [1], in assay [2] and in assay [3] were over 20 µM, over 20 µM and 0.133 µM, respectively.

In the case of `CC(=O)N1CCC[C@]12CC=CCCCC1(CCCC=CCCCOC(=O)N3CC[C@@](C(=O)N[C@@H](Cc4ccccc4)C(=O)N[C@@H](Cc4csc5ccccc45)C(=O)N[C@@H](CC(=O)N4CCOCC4)C(N)=O)(C3)NC(=O)[C@H](CC(C)C)NC(=O)[C@H](Cc3ccccc3)NC(=O)[C@H](C)NC(=O)[C@H](CCCCNC(C)C)NC(=O)[C@H](CCC(N)=O)NC(=O)[C@H](CC(=O)O)NC1=O)NC(=O)[C@H](CC1CCCCC1)NC(=O)[C@H](CC(N)=O)NC2=O` (stereo partly drawn) [I-2426, Ac-PL3-Asn-Cha-B5-Asp-Gln-iPrLys-Ala-Phe-Leu-PyrS2-Phe-BztA-MorphAsn-NH2], the IC50 is over 20 µM in assay [1], over 20 µM in assay [2] and 0.046 µM in assay [3].

Consider `CC(=O)N1CCC[C@]12CC=CCCCC1(CCCC=CCCCOC(=O)N3CC[C@@](C(=O)N[C@@H](Cc4ccsc4)C(=O)N[C@@H](Cc4csc5ccccc45)C(=O)N[C@@H](CCC(N)=O)C(N)=O)(C3)NC(=O)[C@H](CC(C)C)NC(=O)[C@H](Cc3ccccc3)NC(=O)[C@H](C)NC(=O)[C@H](C)NC(=O)[C@H](Cn3cc(C4(C(=O)O)CC4)nn3)NC(=O)[C@H](CC(=O)O)NC1=O)NC(=O)[C@H](CC(C)(C)C)NC(=O)[C@H](CC(=O)O)NC2=O` (stereo partly drawn) [I-2445, Ac-PL3-Asp-Npg-B5-Asp-[CCpCO2H]TriAzDap-Ala-Ala-Phe-Leu-PyrS2-3Thi-BztA-Gln-NH2], for which the values for the IC50 in assay [1], in assay [2] and in assay [3] were 9.5 µM, 17.1 µM and 0.005 µM, respectively.

For the compound `CC(=O)N1CCC[C@]12CC=CCCCC1(CCCC=CCCCOC(=O)N3CC[C@@](C(=O)N[C@@H](Cc4ccsc4)C(=O)N[C@@H](Cc4csc5ccccc45)C(=O)N[C@@H](CCC(=O)N(C)C)C(=O)N[C@@H](C)C(N)=O)(C3)NC(=O)[C@H](CC(C)C)NC(=O)[C@H](Cc3ccccc3)NC(=O)[C@H](C)NC(=O)[C@H](C)NC(=O)[C@H](CN(CC(=O)O)CC(F)(F)F)NC(=O)[C@H](CC(=O)O)NC1=O)NC(=O)[C@H](CC(C)(C)C)NC(=O)[C@H](CC(=O)O)NC2=O` (stereo partly drawn) [I-2467, Ac-PL3-Asp-Npg-B5-Asp-TfeGA-Ala-Ala-Phe-Leu-PyrS2-3Thi-BztA-Me2Gln-Ala-NH2], the IC50 in assay [1] is 1.4 µM; in assay [2], 2.5 µM; in assay [3], 0.01 µM.

By IC50 is commonly meant the concentration needed to halve the response being measured.
